Test results taken from ChEMBL document CHEMBL1149223, “Non-nucleoside inhibitors of the hepatitis C virus NS5B polymerase: discovery and preliminary SAR of benzimidazole derivatives” (Bioorg Med Chem Lett, 2004).

Experiments:
[1] = biological target: RNA-directed RNA polymerase (Hepacivirus hominis, UniProt O39930); assay: Inhibitory activity against NS5B polymerase of hepatitis C virus
Genome polyprotein = Genome polyprotein (Human poliovirus 1 Mahoney, UniProt P03300); assay: Inhibitory activity against polio virus RNA polymerase
Genome polyprotein, sequence (P03300 1749-2209 limits assumed): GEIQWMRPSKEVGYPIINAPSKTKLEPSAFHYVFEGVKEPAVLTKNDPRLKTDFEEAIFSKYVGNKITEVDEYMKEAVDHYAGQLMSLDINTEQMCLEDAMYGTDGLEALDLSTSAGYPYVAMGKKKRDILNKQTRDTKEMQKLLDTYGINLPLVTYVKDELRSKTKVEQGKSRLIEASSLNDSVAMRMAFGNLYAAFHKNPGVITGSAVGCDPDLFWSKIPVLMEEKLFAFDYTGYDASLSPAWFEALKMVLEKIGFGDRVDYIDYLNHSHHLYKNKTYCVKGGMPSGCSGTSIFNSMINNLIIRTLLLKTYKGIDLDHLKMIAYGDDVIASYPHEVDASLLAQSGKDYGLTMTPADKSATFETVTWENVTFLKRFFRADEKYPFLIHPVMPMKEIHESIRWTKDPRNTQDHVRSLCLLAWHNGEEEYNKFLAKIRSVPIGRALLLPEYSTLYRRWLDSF

Hepatitis C virus = assay: Inhibitory activity against HCV RNA replication; assay type: functional, organism-based, Hepacivirus hominis
[2] = biological target: RNA-directed RNA polymerase (Hepacivirus hominis) (UniProt O39930); assay: Inhibitory activity against NS5B polymerase of hepatitis C virus at 7 uM concentration; (Range = 13-30)
RNA-directed RNA polymerase (Hepacivirus hominis), sequence (O39930 1-591): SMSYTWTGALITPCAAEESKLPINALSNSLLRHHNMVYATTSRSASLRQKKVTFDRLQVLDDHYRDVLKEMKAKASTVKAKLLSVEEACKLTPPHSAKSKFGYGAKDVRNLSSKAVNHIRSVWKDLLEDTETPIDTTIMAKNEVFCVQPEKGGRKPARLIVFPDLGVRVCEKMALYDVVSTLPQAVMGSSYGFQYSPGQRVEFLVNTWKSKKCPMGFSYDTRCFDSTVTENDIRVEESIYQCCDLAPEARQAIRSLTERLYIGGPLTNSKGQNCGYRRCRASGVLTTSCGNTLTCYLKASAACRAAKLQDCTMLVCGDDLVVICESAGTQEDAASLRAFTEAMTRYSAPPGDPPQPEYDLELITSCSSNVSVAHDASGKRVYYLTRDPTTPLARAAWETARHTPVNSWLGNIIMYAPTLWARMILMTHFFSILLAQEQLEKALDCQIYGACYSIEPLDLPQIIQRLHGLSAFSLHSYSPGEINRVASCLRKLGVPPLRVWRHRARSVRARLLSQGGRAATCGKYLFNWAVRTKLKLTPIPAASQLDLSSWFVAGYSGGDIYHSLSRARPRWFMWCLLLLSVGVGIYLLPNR

RNA-directed RNA polymerase, sequence (O39930 whole entry): as the sequence (O39930 1-591) above

| Compound | IC50 [1] | IC50 (Genome polyprotein) | EC50 (Hepatitis C virus) | inhibition [2] |
| --- | --- | --- | --- | --- |
| O=C(O)c1ccc2c(c1)nc(-c1cccnc1)n2C1CCCCC1 | 28 µM | > 250 µM | – | – |
| O=C(O)c1ccc2c(c1)nc(-c1ccccn1)n2C1CCCCCC1 | 49 µM | – | – | – |
| CN(C)CCCNC(=O)COc1ccc(-c2nc3cc(C(=O)O)ccc3n2C2CCCCC2)cc1 | 13 µM | – | – | – |
| O=C(O)c1ccc2c(c1)nc(-c1cc3ccccc3o1)n2C1CCCCC1 | 58 µM | – | – | – |
| O=C(O)c1ccc2c(c1)nc(-c1ccccn1)n2-c1ccccc1 | 360 µM | – | – | – |
| O=C(O)c1ccc2c(c1)nc(-c1ccncc1)n2C1CCCCC1 | 17 µM | > 500 µM | – | – |
| O=C(O)c1ccc2c(c1)nc(-c1ncc[nH]1)n2C1CCCCC1 | 10 µM | > 250 µM | – | – |
| NC(=O)c1ccc2c(c1)nc(-c1ccccn1)n2C1CCCCC1 | 27 µM | – | – | – |
| O=C(O)c1ccc2c(c1)nc(-c1ccc(Br)o1)n2C1CCCCC1 | > 30 µM | – | – | – |
| O=C(O)c1ccc2c(c1)nc(-c1ccsc1)n2C1CCCCC1 | 6.33 µM | > 250 µM | > 100 µM | – |
| O=C(O)c1ccc2c(c1)nc(-c1cccs1)n2C1CCCCC1 | 3.4 µM | > 250 µM | > 100 µM | – |
| CCC(CC)n1c(-c2ccccn2)nc2cc(C(=O)O)ccc21 | 139 µM | – | – | – |
| Cc1ccc(-c2nc3cc(C(=O)O)ccc3n2C2CCCCC2)s1 | > 30 µM | – | – | – |
| Cn1cccc1-c1nc2cc(C(=O)O)ccc2n1C1CCCCC1 | 1.8 µM | > 500 µM | – | – |
| CNC(=O)c1ccc2c(c1)nc(-c1ccccn1)n2C1CCCCC1 | 28 µM | – | – | – |
| O=C(O)c1ccc2c(c1)nc(-c1ccc(-c3ccc(Cl)cc3)o1)n2C1CCCCC1 | > 30 µM | – | – | – |
| O=C(O)c1ccc2c(c1)nc(-c1ccc(C(=O)O)o1)n2C1CCCCC1 | > 30 µM | – | – | – |
| COc1ccc(NC(=O)c2ccc3c(c2)nc(-c2ccccn2)n3C2CCCCC2)cc1OC | – | – | – | 30% |
| CC1CCCCC1n1c(-c2ccccn2)nc2cc(C(=O)O)ccc21 (centres undefined) | 13 µM | > 500 µM | – | – |
| O=C(O)c1ccc2c(c1)nc(-c1ccccn1)n2C1CCCC1 | 12 µM | > 500 µM | – | – |
| O=C(O)c1ccc2c(c1)nc(-c1ccoc1)n2C1CCCCC1 | 1.6 µM | > 250 µM | > 100 µM | – |
| Cc1[nH]cnc1-c1nc2cc(C(=O)O)ccc2n1C1CCCCC1 | > 30 µM | – | – | – |
| CC(C)n1c(-c2ccccn2)nc2cc(C(=O)O)ccc21 | 408 µM | – | – | – |
| O=C(O)c1ccc2c(c1)nc(-c1ccc(C(=O)O)s1)n2C1CCCCC1 | > 30 µM | – | – | – |

| Compound | IC50 [1] | IC50 (Genome polyprotein) | EC50 (Hepatitis C virus) | inhibition [2] |
| --- | --- | --- | --- | --- |
| CCOC(=O)c1nc2cc(C(=O)O)ccc2n1C1CCCCC1 | 62 µM | – | – | – |
| O=C(O)c1ccc2c(c1)nc(-c1ccccc1)n2C1CCCCC1 | 8.6 µM | 250 µM | – | – |
| Cc1c(-c2nc3cc(C(=O)O)ccc3n2C2CCCCC2)[nH]c2ccccc12 | > 30 µM | – | – | – |
| COc1ccc(CNC(=O)c2ccc3c(c2)nc(-c2ccccn2)n3C2CCCCC2)cc1OC | 7.1 µM | > 500 µM | – | – |
| O=C(O)c1ccc2c(c1)nc(-c1ccc(CO)o1)n2C1CCCCC1 | > 30 µM | – | – | – |
| CC(C)=Cc1nc2cc(C(=O)O)ccc2n1C1CCCCC1 | 19 µM | > 500 µM | – | – |
| CCc1ccc(-c2nc3cc(C(=O)O)ccc3n2C2CCCCC2)o1 | > 30 µM | – | – | – |
| O=C(O)c1ccc2c(c1)nc(-c1nccs1)n2C1CCCCC1 | 4.6 µM | > 500 µM | – | – |
| O=C(O)c1ccc2[nH]c(-c3ccccn3)nc2c1 | > 500 µM | – | – | – |
| COc1ccc(CCNC(=O)c2ccc3c(c2)nc(-c2ccccn2)n3C2CCCCC2)cc1OC | 12 µM | > 500 µM | – | – |
| O=C(O)c1ccc2c(c1)nc(C1CCCCC1)n2C1CCCCC1 | 20 µM | – | – | – |
| CC1CCC(n2c(-c3ccccn3)nc3cc(C(=O)O)ccc32)CC1 (centres undefined) | 50 µM | – | – | – |
| O=C(O)c1ccc2c(c1)nc(-c1ccco1)n2C1CCCCC1 | 3.7 µM | > 500 µM | – | – |
| O=C(O)c1ccc2c(c1)nc(-c1ccccn1)n2C1CCC1 | 76 µM | – | – | – |
| CCc1ccc(-c2nc3cc(C(=O)O)ccc3n2C2CCCCC2)s1 | > 30 µM | – | – | – |
| Cc1cccc(-c2nc3cc(C(=O)O)ccc3n2C2CCCCC2)n1 | > 30 µM | – | – | – |
| O=C(O)c1ccc2c(c1)nc(C(=O)c1ccccc1)n2C1CCCCC1 | 44 µM | – | – | – |
| O=C(O)c1ccc2c(c1)nc(-c1ccc[nH]1)n2C1CCCCC1 | 5.9 µM | > 500 µM | – | – |
| Cc1cc(-c2nc3cc(C(=O)O)ccc3n2C2CCCCC2)oc1C | > 30 µM | – | – | – |
| O=C(O)c1ccc2c(c1)nc(-c1ccc3ccccc3n1)n2C1CCCCC1 | > 30 µM | – | – | – |
| Cc1cc(C)c(-c2nc3cc(C(=O)O)ccc3n2C2CCCCC2)c(C)c1 | 120 µM | – | – | – |
| O=C(O)c1ccc2c(c1)nc(-c1c[nH]nc1-c1ccccc1)n2C1CCCCC1 | > 30 µM | – | – | – |
| O=C(O)c1ccc2c(c1)ncn2C1CCCCC1 | 186 µM | – | – | – |
| O=C(O)c1ccc2c(c1)nc(-c1ccccn1)n2C1CCCCC1 | 4.3 µM | > 500 µM | > 100 µM | – |
